pIC50: −log10 of the molar value. Read-outs that look alike come from different tables or passages of the source.
Target: T1, PD-1/PD-L1 interaction (PD-1-Ig / PD-L1-His) (Homo sapiens, UniProt Q9NZQ7)
T1 construct: hPDL1(18-239)-TVMV-His; TVMV protease site linker (C); made in house; host or cells: HEK293T
Assay: PD-1/PD-L1 Homogenous Time-Resolved Fluorescence (HTRF) binding assay
Conditions: PD-L1-His 10 nM, PD-1-Ig 20 nM, read-out: Range or IC50
How it was run: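 Human PD-L1-His (10 nM final) was pre-incubated with inhibitor for 15 min, then PD-1-Ig (20 nM final) was added for a further 15 min in dPBS with 0.1% BSA and 0.05% Tween-20. Binding was detected by HTRF using Eu-cryptate anti-Ig (1 nM) and APC anti-His (20 nM).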

T1 sequence (Q9NZQ7 with tags, fused parts or gaps): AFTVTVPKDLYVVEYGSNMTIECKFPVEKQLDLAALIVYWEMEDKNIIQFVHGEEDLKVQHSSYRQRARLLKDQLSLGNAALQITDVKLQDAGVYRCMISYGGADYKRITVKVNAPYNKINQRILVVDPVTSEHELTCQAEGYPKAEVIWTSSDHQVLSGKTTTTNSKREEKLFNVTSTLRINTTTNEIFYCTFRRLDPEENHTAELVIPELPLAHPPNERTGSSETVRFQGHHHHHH

`Cc1c(OCCCN2CCCCC2)cccc1-c1cccc(OCCCN2CC[C@@H](O)C2)c1C` [Example 2105, (R)-1-(3-((2,2′-dimethyl-3′-(3-(piperidin-1-yl)propoxy)-[1,1′-biphenyl]-3-yl)oxy)propyl)pyrrolidin-3-ol] gave a pIC50 (IC50 range class) of 7.05 to 7.70.

Work on `N#Cc1cncc(COc2cc(OCc3cccc(-c4cccc(COc5cc(OCc6cncc(C#N)c6)c(C(=O)N6CCOCC6)cc5Cl)c4Cl)c3Cl)c(Cl)cc2C(=O)N2CCOCC2)c1` [Example 80050] yielded a pIC50 (IC50 range class) of 7.05 to 7.70.

For `Cc1c(COc2cc(O)c(CN[C@@](C)(CO)C(=O)O)cc2Cl)cccc1-c1cccc(COc2cc(OCc3cncc(C#N)c3)c(CN[C@@](C)(CO)C(=O)O)cc2Cl)c1C` [Example 40130], the pIC50 (IC50 range class) was 7.70 to 10.40.

With `Cc1c(COc2cc(OCc3cncc(C#N)c3)c(CN[C@@](C)(CO)C(=O)O)cc2Cl)cccc1-c1cccc(COc2cc(OCc3cncc(C#N)c3)c(CN[C@@](C)(CO)C(=O)O)cc2Cl)c1C` [Example 2123, (2S,2′S)-2,2′-((((((2,2′-dimethyl-[1,1′-biphenyl]-3,3′-diyl)bis(methylene))bis(oxy))bis(5-chloro-2-((5-cyanopyridin-3-yl)methoxy)-4,1-phenylene))bis(methylene))bis(azanediyl))bis(3-hydroxy-2-methylpropanoic acid)] the pIC50 (IC50 range class) was 7.70 to 10.40.

In the case of `Cc1c(OCCCN2CC[C@@H](O)C2)cccc1-c1cccc(C(=O)NCCCN2CC[C@@H](O)C2)c1C` [Example 3009, 3′-(3-((R)-3-hydroxypyrrolidin-1-yl)propoxy)-N-(3-((R)-3-hydroxypyrrolidin-1-yl)propyl)-2,2′-dimethyl-[1,1′-biphenyl]-3-carboxamide], the pIC50 (IC50 range class) was 5.00 to 6.00.

For `Cc1c(COc2cc(OCc3cncc(C#N)c3)c(CN3CCOC[C@@H]3C(=O)O)cc2Cl)cccc1-c1cccc(COc2cc(OCc3cncc(C#N)c3)c(CN3CCOC[C@@H]3C(=O)O)cc2Cl)c1C` [Example 40370], the pIC50 (IC50 range class) was 7.70 to 10.40.

Compound `Cc1c(COc2cc(OCc3cncc(C#N)c3)c(CO)cc2Cl)cccc1-c1cccc(COc2cc(OCc3cncc(C#N)c3)c(CNC(C(=O)O)C(=O)O)cc2Cl)c1C` [Example 50220] has a pIC50 (IC50 range class) of 7.70 to 10.40.

With `Cc1c(OCCCN(CCO)Cc2ccccc2)cccc1-c1cccc(OCCCN2CC[C@@H](O)C2)c1C` [Example 2072, (R)-1-(3-((3′-(3-(benzyl(2-hydroxyethyl)amino)propoxy)-2,2′-dimethyl-[1,1′-biphenyl]-3-yl)oxy)propyl)pyrrolidin-3-ol] the pIC50 (IC50 range class) was 6.00 to 7.05.

`Cc1c(COc2cc(OCC3CC3)c(CNC(CCO)C(=O)O)cc2Cl)cccc1-c1cccc(COc2cc(OCC3CC3)c(CNC(CCO)C(=O)O)cc2Cl)c1C` (stereo not drawn) [Example 40180] showed a pIC50 (IC50 range class) of 7.70 to 10.40.

`Cc1c(OCCCNCCc2ccccn2)cccc1-c1cccc(OCCCN2CC[C@@H](O)C2)c1C` [Example 2118, (R)-1-(3-((2,2′-dimethyl-3′-(3-((2-(pyridin-2-yl)ethyl)amino)propoxy)-[1,1′-biphenyl]-3-yl)oxy)propyl)pyrrolidin-3-ol] was tested, and the pIC50 (IC50 range class) was 7.05 to 7.70.

Compound `Cc1c(OCCCNC[C@H](O)c2ccccc2)cccc1-c1cccc(OCCCN2CC[C@@H](O)C2)c1C` [Example 2112, (R)-1-(3-((3′-(3-(((R)-2-hydroxy-2-phenylethyl)amino)propoxy)-2,2′-dimethyl-[1,1′-biphenyl]-3-yl)oxy)propyl)pyrrolidin-3-ol] has a pIC50 (numeric IC50) of 7.09.

`Cc1c(OCCCNC[C@@H](O)c2ccc(F)c(Cl)c2)cccc1-c1cccc(OCCCN2CC[C@@H](O)C2)c1C` [Example 2075, (R)-1-(3-((3′-(3-(((S)-2-(3-chloro-4-fluorophenyl)-2-hydroxyethyl)amino)propoxy)-2,2′-dimethyl-[1,1′-biphenyl]-3-yl)oxy)propyl)pyrrolidin-3-ol] showed a pIC50 (IC50 range class) of 7.05 to 7.70.

With `Cc1c(COc2cc(OCc3cc(F)cc(F)c3)c(CN(C)[C@@H](CC(C)C)C(=O)O)cc2Cl)cccc1-c1cccc(COc2cc(OCc3cc(F)cc(F)c3)c(CN(C)[C@@H](CC(C)C)C(=O)O)cc2Cl)c1C` [Example 5017, (2S,2′S)-2,2′-((((((2,2′-dimethyl-[1,1′-biphenyl]-3,3′-diyl)bis(methylene))bis(oxy))bis(5-chloro-2-((3,5-difluorobenzyl)oxy)-4,1-phenylene))bis(methylene))bis(methylazanediyl))bis(4-methylpentanoic acid)] the pIC50 (IC50 range class) was 7.70 to 10.40.

`Cc1c(OCCCNCCn2cc(Cl)cn2)cccc1-c1cccc(OCCCN2CC[C@@H](O)C2)c1C` [Example 2060, (R)-1-(3-((3′-(3-((2-(4-chloro-1H-pyrazol-1-yl)ethyl)amino)propoxy)-2,2′-dimethyl-[1,1′-biphenyl]-3-yl)oxy)propyl)pyrrolidin-3-ol] gave a pIC50 (IC50 range class) of 7.05 to 7.70.

`Cc1c(OCCCNCCC(N)=O)cccc1-c1cccc(OCCCN2CC[C@@H](O)C2)c1C` [Example 2038, (R)-3-((3-((3′-(3-(3-hydroxypyrrolidin-1-yl)propoxy)-2,2′-dimethyl-[1,1′-biphenyl]-3-yl)oxy)propyl)amino)propanamide] showed a pIC50 (IC50 range class) of 6.00 to 7.05.

Compound `Cc1c(OCCCNCCc2ccncc2)cccc1-c1cccc(OCCCN[C@@H]2C[C@H](CO)[C@@H](O)[C@H]2O)c1C` [Example 2089, (1R,2S,3R,5R)-3-((3-((2,2′-dimethyl-3′-(3-((2-(pyridin-4-yl)ethyl)amino)propoxy)-[1,1′-biphenyl]-3-yl)oxy)propyl)amino)-5-(hydroxymethyl)cyclopentane-1,2-diol] has a pIC50 (numeric IC50) of 8.15.

`Cc1c(OCCCN2CCN(CC(=O)NC(C)C)CC2)cccc1-c1cccc(OCCCN2CC[C@@H](O)C2)c1C` [Example 2109, (R)-2-(4-(3-((3′-(3-(3-hydroxypyrrolidin-1-yl)propoxy)-2,2′-dimethyl-[1,1′-biphenyl]-3-yl)oxy)propyl)piperazin-1-yl)-N-isopropylacetamide] showed a pIC50 (IC50 range class) of 6.00 to 7.05.

`N#Cc1cncc(COc2cc(OCc3cccc(-c4cccc(COc5cc(OCc6cncc(C#N)c6)c(C(=O)NCCCO)cc5Cl)c4Cl)c3Cl)c(Cl)cc2C(=O)NCCCO)c1` [Example 80020] showed a pIC50 (IC50 range class) of 6.00 to 7.05.

Compound `Cc1c(OCCCN2CC[C@@H](O)C2)cccc1-c1cccc(C(=O)NCCN2CC[C@@H](O)C2)c1C` [Example 3015, N-(2-((R)-3-hydroxypyrrolidin-1-yl)ethyl)-3′-(3-((R)-3-hydroxypyrrolidin-1-yl)propoxy)-2,2′-dimethyl-[1,1′-biphenyl]-3-carboxamide] has a pIC50 (IC50 range class) of under 5.00.

`Cc1c(COc2cc(OCc3cc(F)cc(F)c3)c(CN3CCCC[C@H]3C(=O)O)cc2Cl)cccc1-c1cccc(COc2cc(OCc3cc(F)cc(F)c3)c(CN3CCCC[C@H]3C(=O)O)cc2Cl)c1C` [Example 5006, (2S,2′S)-1,1′-(((((2,2′-dimethyl-[1,1′-biphenyl]-3,3′-diyl)bis(methylene))bis(oxy))bis(5-chloro-2-((3,5-difluorobenzyl)oxy)-4,1-phenylene))bis(methylene))bis(piperidine-2-carboxylic acid)] was tested, and the pIC50 (IC50 range class) was 7.70 to 10.40.

`N#Cc1cncc(COc2cc(OCc3cccc(-c4cccc(COc5cc(OCc6cncc(C#N)c6)c(CN[C@@H](CCO)C(=O)O)cc5Cl)c4Cl)c3Cl)c(Cl)cc2CN[C@@H](CCO)C(=O)O)c1` [Example 40190] gave a pIC50 (IC50 range class) of 7.70 to 10.40.

With `C[C@@](CO)(NCc1cc(Cl)c(OCc2cccc(-c3cccc(COc4cc(OCc5cncc(C#N)c5)c(CN[C@@](C)(CO)C(=O)O)cc4Cl)c3Cl)c2Cl)cc1O)C(=O)O` [Example 41170] the pIC50 (IC50 range class) was 7.70 to 10.40.

With `COc1cc(OCc2cccc(-c3cccc(COc4cc(OC)c(CN(C)Cc5cncnc5)cc4Cl)c3C)c2C)c(Cl)cc1CN(C)Cc1cncnc1` [Example 5038, 1,1′-((((2,2′-dimethyl-[1,1′-biphenyl]-3,3′-diyl)bis(methylene))bis(oxy))bis(5-chloro-2-methoxy-4,1-phenylene))bis(N-methyl-N-(pyrimidin-5-ylmethyl)methanamine)] the pIC50 (IC50 range class) was 6.00 to 7.05.

`Cc1c(COc2cc(OCc3ccc(-n4cccn4)nc3)c(CNC(C)(CO)CO)cc2Cl)cccc1-c1cccc(COc2cc(OCc3ccc(-n4cccn4)nc3)c(CNC(C)(CO)CO)cc2Cl)c1C` [Example 5020, 2,2′-((((((2,2′-dimethyl-[1,1′-biphenyl]-3,3′-diyl)bis(methylene))bis(oxy))bis(2-((6-(1H-pyrazol-1-yl)pyridin-3-yl)methoxy)-5-chloro-4,1-phenylene))bis(methylene))bis(azanediyl))bis(2-methylpropane-1,3-diol)] gave a pIC50 (IC50 range class) of 7.70 to 10.40.

Compound `COCCC(NCc1cc(Cl)c(OCc2cccc(-c3cccc(COc4cc(OCc5cncc(C#N)c5)c(CNC(CCOC)C(=O)O)cc4Cl)c3C)c2C)cc1OCc1cncc(C#N)c1)C(=O)O` (stereo not drawn) [Example 40780] has a pIC50 (IC50 range class) of 7.70 to 10.40.

For `Cc1c(COc2cc(OCc3cncc(C#N)c3)c(CN[C@H](C(=O)O)[C@H](C)O)cc2Cl)cccc1-c1cccc(COc2cc(OCc3cncc(C#N)c3)c(CN[C@H](C(=O)O)[C@H](C)O)cc2Cl)c1C` [Example 41110], the pIC50 (IC50 range class) was 7.70 to 10.40.

`N#Cc1cncc(COc2cc(OCc3cccc(-c4cccc(COc5cc(OCc6cncc(C#N)c6)c(C(=O)N6CCC(=O)CC6)cc5Cl)c4Cl)c3Cl)c(Cl)cc2C(=O)N2CCC(=O)CC2)c1` [Example 80010] showed a pIC50 (IC50 range class) of 7.05 to 7.70.

`Cc1c(COc2cc(OCc3cncc(C#N)c3)c(CNC[C@H](C)C(=O)O)cc2Cl)cccc1-c1cccc(COc2cc(OCc3cncc(C#N)c3)c(CNC[C@H](C)C(=O)O)cc2Cl)c1C` [Example 40500] showed a pIC50 (IC50 range class) of 7.70 to 10.40.

`Cc1c(COc2cc(OCc3cncc(C#N)c3)c(CO)cc2Cl)cccc1-c1cccc(COc2cc(OCc3cncc(C#N)c3)c(CN3CCCC(C(=O)O)C3)cc2Cl)c1C` (stereo not drawn) [Example 50110] showed a pIC50 (IC50 range class) of 7.70 to 10.40.

Work on `COc1cc(OCc2cccc(-c3cccc(COc4cc(OC)c(CN(C)Cc5cncs5)cc4Cl)c3C)c2C)c(Cl)cc1CN(C)Cc1cncs1` [Example 5039, 1,1′-((((2,2′-dimethyl-[1,1′-biphenyl]-3,3′-diyl)bis(methylene))bis(oxy))bis(5-chloro-2-methoxy-4,1-phenylene))bis(N-methyl-N-(thiazol-5-ylmethyl)methanamine)] yielded a pIC50 (IC50 range class) of 6.00 to 7.05.

Reference: patent US10144706B2 (BRISTOL-MYERS SQUIBB COMPANY, priority 2016, dated 2018)
